One assay deals with T1, SIK1 (Homo sapiens, UniProt P57059).
T1 construct: purchased Carna Biosciences 02-131
In words: ADP-Glo kinase assay, SIK1. The class given is biochemical. The essentials:
(§1)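 Kinase reactions ran 120 min at room temperature after ATP addition to enzyme-substrate mix. Remaining ATP was depleted (40 min) and ADP converted to ATP for luciferase detection (30 min), signal rising with activity. Final 1% DMSO and 10 μM staurosporine served as negative and positive controls.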
In general terms: In ADP-Glo the light output rises with the ADP produced.

The test system of assay [1] is LPS-induced TNFα in monocytes. Description: Monocytes assay: LPS-triggered TNFα (ELISA). In kind it is cell-based, human. As to conditions: Homo sapiens, Monocyte, LPS-triggered TNFα inhibition. As for the experimental part: This assay evaluates illustrative compounds of the invention for their inhibition of LPS-induced TNFα and LPS triggered IL-10 secretion in monocytes.
PBMCs are isolated from human blood samples (buffycoats). The buffy coat is aseptically transferred into a 50 mL Falcon tube, and diluted 1/2 in PBS. Falcon tubes are filled with 20 mL Lymphoprep™, on top of which 25 mL of the buffy coat is carefully added, tubes are centrifuged for 35 min at 400 g in temperature controlled centrifuge, without brake, at 25° C. PBMCs are aspirated from the white interface layer between sample and Lymphoprep™. PBMCs are washed five times in PBS.
PBMCs are centrifuged at 300×g for 10 min and resuspended at a density of 1.0*10^7 cells/80 μL Miltenyi buffer (PBS, pH 7.4, 1% FBS, 2 mM EDTA).
Starting from this point of the protocol all steps are performed on ice. 20 μL of CD14+ micro-beads are added per 1.0*10^7 cells, the tube is mixed and incubated for 15 min in the fridge at 4° C. Cell suspension volume is adjusted to total volume of 100 mL using Miltenyi buffer, mixed gently and subsequently centrifuged for 10 min at 300×g. Supernatant is discarded and cell pellet is resuspended in 12 mL of Miltenyi buffer.
Four LS columns are placed in the MACS Separator (magnet) from Miltenyi Biotec, and are prewet by rinsing with 3 mL of MACS buffer per column. Three mL of cell suspension is added onto the column (max 1*10^8 of labelled cells/column), and columns are subsequently washed 3 times with 3 mL of Miltenyi buffer.
The columns are removed from the magnets, and 5 mL of Miltenyi buffer are added to the column to flush out the CD14+ fraction by pushing the plunger into the column. The flushed fractions are collected in a fresh 50 mL Falcon and volume is adjusted to 30 mL using Miltenyi buffer, cells are centrifuged for 10 min at 300×g. The obtained cell pellet is resuspended in 10 mL RPMI w/o FBS, and cell density is determined using a hematologic analyser (Sysmex XS-500i).
A compound dilution plate is made in 100% DMSO by 3-fold dilution of 10 mM stock solution. An intermediate dilution plate (10× final concentration) is made by diluting the compound dilution plate 50-fold in RPMI medium.
10 μL of the 10× final concentration compound is added to the cells and incubated for 1 h at 37° C. before addition of trigger. No trigger conditions/trigger conditions are spiked with equal final DMSO concentrations of 0.2% DMSO. 10 μL of 10×LPS (final conc. 200 ng/mL) solution are added to all wells except for the ‘no trigger wells’ where 10 μL medium is added. Supernatant is collected after 4 h of LPS triggering.
The plate is then washed once with PBST (PBS+0.05% Tween20) and once with PBS followed by the addition of 100 μL of blocking buffer (1% Bovine Serum Albumin (BSA)-5% Sucrose) and plates are sealed and incubated for at least 4 h at RT. After washing the plate once with PBST and once with PBS, […]. Plates are washed twice with PBST, and once with PBS, after which 35 μL of the detection antibody is added (final concentration 0.25 μg/mL diluted in dilution buffer) and plates are incubated for at least 2 h at RT. Plates are washed twice with PBST, and once with PBS, whereafter 35 μL of Strep-HRP conjugate (0.5 μg/mL final concentration diluted in dilution buffer) is added. Plates are incubated in the dark, at RT for at least 45 min but no longer than 1 h. Plates are washed twice with PBST, and once with PBS. Thereafter, 50 μL of luminol substrate is added to each well (prepared according to manufacturer's instructions), and incubated for 5 min at RT protected from light.
To measure the inhibition of LPS induced TNFα, percentage inhibition (PIN) values are calculated for all concentrations tested, compared to controls.
Background: In an ELISA, binding on a coated surface is turned into a signal by an enzyme label.

A further assay deals with T2, SIK2 (Homo sapiens, UniProt Q9H0K1).
T2 construct: purchased ThermoFisher Scientific PV4792
Description: ADP-Glo kinase assay, SIK2. The class given is biochemical. The essentials:
as §1

Another assay addresses T3, SIK3 (Homo sapiens, UniProt Q9Y2K2).
T3 construct: purchased SignalChem S12-11G-100
Description: ADP-Glo kinase assay, SIK3. The class given is biochemical. The essentials:
as §1

From US12391679B2, “Benzamide-substituted bicyclic imidazo- and pyrazolo-fused -pyridine, -pyrimide, and -pyridazine compounds for treatment of inflammatory diseases” (ONCO3R Therapeutics BV, priority 2019, dated 2025) come the findings set out here.

As usually defined, the IC50 is the concentration that inhibits the measured activity by half. In general, EC50 refers to the concentration at which the effect is half-maximal. Lower therefore signals a more potent agent.

T3 sequence (Q9Y2K2 59-365 limits assumed): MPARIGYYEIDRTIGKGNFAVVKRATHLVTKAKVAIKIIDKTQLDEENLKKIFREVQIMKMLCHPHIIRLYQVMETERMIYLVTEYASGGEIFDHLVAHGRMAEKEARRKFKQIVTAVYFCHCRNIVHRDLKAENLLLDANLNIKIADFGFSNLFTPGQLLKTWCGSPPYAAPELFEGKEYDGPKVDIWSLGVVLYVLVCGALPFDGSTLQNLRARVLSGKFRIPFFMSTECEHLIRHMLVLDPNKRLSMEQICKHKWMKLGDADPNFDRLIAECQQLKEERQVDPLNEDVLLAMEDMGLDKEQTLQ
T2 sequence (Q9H0K1 whole entry): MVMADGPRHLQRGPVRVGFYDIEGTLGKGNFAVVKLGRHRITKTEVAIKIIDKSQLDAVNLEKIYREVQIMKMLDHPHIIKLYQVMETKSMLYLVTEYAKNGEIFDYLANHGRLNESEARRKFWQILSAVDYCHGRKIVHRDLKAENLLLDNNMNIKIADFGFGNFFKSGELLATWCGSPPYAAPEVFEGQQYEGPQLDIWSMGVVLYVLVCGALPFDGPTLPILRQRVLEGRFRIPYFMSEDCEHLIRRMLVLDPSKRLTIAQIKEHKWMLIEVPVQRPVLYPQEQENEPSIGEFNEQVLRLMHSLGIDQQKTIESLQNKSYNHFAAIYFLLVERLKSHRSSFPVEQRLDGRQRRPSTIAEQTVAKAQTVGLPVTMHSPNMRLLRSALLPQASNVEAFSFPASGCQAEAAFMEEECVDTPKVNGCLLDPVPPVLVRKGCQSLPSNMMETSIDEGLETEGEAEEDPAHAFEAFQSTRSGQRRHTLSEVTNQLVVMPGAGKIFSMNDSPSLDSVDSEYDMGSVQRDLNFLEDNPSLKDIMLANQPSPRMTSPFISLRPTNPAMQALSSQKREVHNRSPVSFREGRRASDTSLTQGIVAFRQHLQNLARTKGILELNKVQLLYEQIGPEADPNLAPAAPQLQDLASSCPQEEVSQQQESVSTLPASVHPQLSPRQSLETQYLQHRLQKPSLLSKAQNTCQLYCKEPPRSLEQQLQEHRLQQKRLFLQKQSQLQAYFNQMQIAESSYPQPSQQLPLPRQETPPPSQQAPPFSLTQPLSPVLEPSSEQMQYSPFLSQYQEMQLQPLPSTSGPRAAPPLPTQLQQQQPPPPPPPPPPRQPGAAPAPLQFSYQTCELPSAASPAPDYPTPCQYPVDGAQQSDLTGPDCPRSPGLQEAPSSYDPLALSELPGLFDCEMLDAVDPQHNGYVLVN
T1 sequence (P57059 whole entry): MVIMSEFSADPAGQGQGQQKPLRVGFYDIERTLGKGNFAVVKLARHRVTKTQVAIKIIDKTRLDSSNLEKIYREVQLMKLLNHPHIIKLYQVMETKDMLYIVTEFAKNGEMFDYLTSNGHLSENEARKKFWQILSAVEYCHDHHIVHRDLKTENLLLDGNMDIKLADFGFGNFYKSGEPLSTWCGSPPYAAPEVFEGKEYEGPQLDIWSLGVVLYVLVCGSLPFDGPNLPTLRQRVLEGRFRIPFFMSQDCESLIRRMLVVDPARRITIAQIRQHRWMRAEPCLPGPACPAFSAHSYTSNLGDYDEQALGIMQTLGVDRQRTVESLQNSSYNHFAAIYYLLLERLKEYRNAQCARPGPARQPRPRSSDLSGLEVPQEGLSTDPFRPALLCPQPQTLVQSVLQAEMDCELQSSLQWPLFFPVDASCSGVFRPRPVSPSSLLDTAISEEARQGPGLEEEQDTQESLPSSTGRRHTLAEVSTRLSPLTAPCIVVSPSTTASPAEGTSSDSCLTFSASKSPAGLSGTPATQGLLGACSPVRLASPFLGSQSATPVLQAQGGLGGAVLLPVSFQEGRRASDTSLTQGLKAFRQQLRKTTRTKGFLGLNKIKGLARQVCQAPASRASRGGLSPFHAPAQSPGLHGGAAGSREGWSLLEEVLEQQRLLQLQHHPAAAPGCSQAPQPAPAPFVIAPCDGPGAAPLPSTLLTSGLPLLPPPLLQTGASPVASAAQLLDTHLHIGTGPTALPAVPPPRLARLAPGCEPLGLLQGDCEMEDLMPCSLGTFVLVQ

On to `COc1cc(-c2cnn3cc(C(C)(C)c4nc(C)no4)ccc23)cc(OC(F)F)c1C(=O)NC1CC1` [Cpd 248, N-cyclopropyl-2-(difluoromethoxy)-6-methoxy-4-[6-[1-methyl-1-(3-methyl-1,2,4-oxadiazol-5-yl)ethyl]pyrazolo[1,5-a]pyridin-3-yl]benzamide], for which the IC50 against SIK1 is above 500 nM; at SIK2, above 500 nM; against SIK3 it was 10 to 100 nM. This compound yielded a concentration giving a half-maximal response (EC50) in assay [1] of 100 to 1000 nM.

For the compound `COc1cn2c(-c3cc(OC)c(C(=O)NC4CC4)c(OC(F)F)c3)cnc2cc1C1CCOCC1` [Cpd 167, N-cyclopropyl-2-(difluoromethoxy)-6-methoxy-4-(6-methoxy-7-tetrahydropyran-4-yl-imidazo[1,2-a]pyridin-3-yl)benzamide], the results for the IC50 against SIK1, on SIK2 and against SIK3 were above 500 nM, 100 to 500 nM and 10 to 100 nM, respectively. The same compound displayed an EC50 in assay [1] of 1000 to 5000 nM.

With `COc1cc(-c2cnn3cc(C(C)(C)COCC4COC4)ccc23)cc(OC(F)F)c1C(=O)N[C@@H]1C[C@@H]1F` [Cpd 262, 2-(difluoromethoxy)-4-[6-[1,1-dimethyl-2-(oxetan-3-ylmethoxy)ethyl]pyrazolo[1,5-a]pyridin-3-yl]-N-[(1R,2S)-2-fluorocyclopropyl]-6-methoxy-benzamide], the 50% inhibitory concentration (IC50) against SIK1 is above 500 nM; at SIK2, above 500 nM; at SIK3, 0.01 to 10 nM. In assay [1], this compound came in with an EC50 of 100 to 1000 nM.

Turning to `COc1cc(-c2cnc3cc(C(C)(C)C#N)c(OCCO)cn23)cc(OC(F)F)c1C(=O)NC1CC1` [Cpd 221, 4-[7-(1-cyano-1-methyl-ethyl)-6-(2-hydroxyethoxy)imidazo[1,2-a]pyridin-3-yl]-N-cyclopropyl-2-(difluoromethoxy)-6-methoxy-benzamide], the figures for the 50% inhibitory concentration (IC50) against SIK1, against SIK2 and on SIK3 were above 500 nM, above 500 nM and 10 to 100 nM, respectively. Also, the half-maximal effective concentration (EC50) in assay [1] lay in the range of 100 to 1000 nM.

In the case of `COc1cc(-c2cnn3cc(C(C)(C)COC4COC4)ccc23)cc(OC(F)F)c1C(=O)N[C@@H]1C[C@@H]1F` [Cpd 265, 2-(difluoromethoxy)-4-[6-[1,1-dimethyl-2-(oxetan-3-yloxy)ethyl]pyrazolo[1,5-a]pyridin-3-yl]-N-[(1R,2S)-2-fluorocyclopropyl]-6-methoxy-benzamide], the IC50 is above 500 nM at SIK1, above 500 nM at SIK2 and 10 to 100 nM against SIK3. In assay [1], this compound displayed a concentration giving a half-maximal response (EC50) of 100 to 1000 nM.

For `COc1cc(-c2cnc3cc(C(C)(O)CN4CCOCC4)ccn23)cc(OC(F)F)c1C(=O)NC1CC1` (stereo not shown) [Cpd 178, N-cyclopropyl-2-(difluoromethoxy)-4-[7-(1-hydroxy-1-methyl-2-morpholino-ethyl)imidazo[1,2-a]pyridin-3-yl]-6-methoxy-benzamide], the IC50 is above 500 nM against SIK1, above 500 nM on SIK2 and 10 to 100 nM against SIK3. The compound further came in with an EC50 in assay [1] of 100 to 1000 nM.

In the case of `COc1cc(-c2cnc3cc(C(C)(O)CN4CCCCC4)ccn23)cc(OC(F)F)c1C(=O)NC1CC1` (stereo not shown) [Cpd 185, N-cyclopropyl-2-(difluoromethoxy)-4-[7-[1-hydroxy-1-methyl-2-(1-piperidyl)ethyl]imidazo[1,2-a]pyridin-3-yl]-6-methoxy-benzamide], the results for the concentration for half-maximal inhibition (IC50) against SIK1, against SIK2 and at SIK3 were above 500 nM, above 500 nM and 10 to 100 nM, respectively. Also, the EC50 in assay [1] was 100 to 1000 nM.

Regarding `COc1cc(-c2cnc3cc(C4CN(C(C)=O)C4)c(F)cn23)cc(OC(F)F)c1C(=O)NC1CC1` [Cpd 169, 4-[7-(1-acetylazetidin-3-yl)-6-fluoro-imidazo[1,2-a]pyridin-3-yl]-N-cyclopropyl-2-(difluoromethoxy)-6-methoxy-benzamide], the IC50 against SIK1 is above 500 nM; on SIK2 it was 100 to 500 nM; on SIK3, 10 to 100 nM. Moreover, the EC50 in assay [1] lay in the range of 1000 to 5000 nM.

As to `COc1cc(-c2cnc3cc(C4CCCN4)ccn23)cc(OC(F)F)c1C(=O)NC1CC1` (stereo not shown) [Cpd 188, N-cyclopropyl-2-(difluoromethoxy)-6-methoxy-4-(7-pyrrolidin-2-ylimidazo[1,2-a]pyridin-3-yl)benzamide], the values for the IC50 on SIK1, on SIK2 and at SIK3 were above 500 nM, 100 to 500 nM and 10 to 100 nM, respectively. Moreover, the EC50 in assay [1] is 100 to 1000 nM.

Consider `COc1cc(-c2cnc3cc(C4(C#N)CN(C)C4)ccn23)cc(OC(F)F)c1C(=O)NC1CC1` [Cpd 121, 4-[7-(3-cyano-1-methyl-azetidin-3-yl)imidazo[1,2-a]pyridin-3-yl]-N-cyclopropyl-2-(difluoromethoxy)-6-methoxy-benzamide], for which the half-maximal inhibitory concentration (IC50) on SIK1 is above 500 nM; on SIK2 it was above 500 nM; against SIK3 it was 10 to 100 nM. The compound also displayed an EC50 in assay [1] of 1000 to 5000 nM.
